Results as given in the supplement of paper PMC13380429.
± gives the standard deviation of the averaged measurements.

Legend:
Settings in all cases: 72 h
[1] = test system: Caco-2; assay: cell viability relative to DMSO; higher = less toxic
[2] = test system: Calu-3; assay: as above
[3] = test system: HepG2; assay: as above
[4] = test system: U2OS; assay: as above
[5] = test system: Vero E6; assay: as above
[6] = test system: Caco-2; assay: relative viability EC50 (midpoint between 100% and the lowest measured viability); higher = less toxic
[7] = test system: Calu-3; assay: as above
[8] = test system: HepG2; assay: as above
[9] = test system: U2OS; assay: as above
[10] = test system: Vero E6; assay: as above
[11] = test system: Caco-2; assay: drug sensitivity score (DSS) for viability; higher = more toxic; extreme values may be limits of the assay
[12] = test system: Calu-3; assay: as above
[13] = test system: HepG2; assay: as above
[14] = test system: U2OS; assay: as above
[15] = test system: Vero E6; assay: as above

Compound | cell viability ([1]; 1 nM) [%] | cell viability ([1]; 10 nM) [%] | cell viability ([1]; 100 nM) [%] | cell viability ([1]; 1000 nM) [%] | cell viability ([1]; 10000 nM) [%] | cell viability ([2]; 1 nM) [%] | cell viability ([2]; 10 nM) [%] | cell viability ([2]; 100 nM) [%] | cell viability ([2]; 1000 nM) [%] | cell viability ([2]; 10000 nM) [%] | cell viability ([3]; 1 nM) [%] | cell viability ([3]; 10 nM) [%] | cell viability ([3]; 100 nM) [%] | cell viability ([3]; 1000 nM) [%] | cell viability ([3]; 10000 nM) [%] | cell viability ([4]; 1 nM) [%] | cell viability ([4]; 10 nM) [%] | cell viability ([4]; 100 nM) [%] | cell viability ([4]; 1000 nM) [%] | cell viability ([4]; 10000 nM) [%] | cell viability ([5]; 1 nM) [%] | cell viability ([5]; 10 nM) [%] | cell viability ([5]; 100 nM) [%] | cell viability ([5]; 1000 nM) [%] | cell viability ([5]; 10000 nM) [%] | relative viability EC50 [6] [µM] | relative viability EC50 [7] [µM] | relative viability EC50 [8] [µM] | relative viability EC50 [9] [µM] | relative viability EC50 [10] [µM] | drug sensitivity score [11] | drug sensitivity score [12] | drug sensitivity score [13] | drug sensitivity score [14] | drug sensitivity score [15]
O=S(=O)(c1ccccc1F)N1CCOc2c(N3CCNCC3)cccc21 [R-1485] | 89.3 | 98.6 | 93 | 96.3 | 95.6 | 96.5 | 100 | 98.8 | 100 | 90.8 | 102 | 101 | 101 | 93.6 | 96.7 | 96.2 | 96.5 | 93.6 | 97.6 | 92.8 | 105 | 105 | 99.2 | 97.3 | 108 | > 10 | > 10 | > 10 | > 10 | > 10 | 0 | 0 | 0 | 0 | 0
Cc1nn(-c2ccccc2)c(C)c1/C=N/N1CCN(Cc2ccccc2)CC1 [SANT-1] | 105 | 102 | 99.2 | 94 | 104 | 98.6 | 93.8 | 93.1 | 81.7 | 94.3 | 87.1 | 92.3 | 87 | 99.7 | 74.1 | 105 | 98.3 | 102 | 99.5 | 102 | 98.1 | 99.7 | 94.6 | 102 | 106 | > 10 | > 10 | > 10 | > 10 | > 10 | 0 | 0.2 | 0 | 0 | 0
O=S(=O)(NCCCCCCc1ccccc1)c1cccc2c(Cl)cccc12 [SC-9] | 91.8 | 89 | 87.2 | 101 | 94.5 | 102 | 108 | 102 | 96.8 | 101 | 105 | 96.6 | 103 | 108 | 119 | 94.6 | 97.9 | 92.7 | 97.4 | 99.5 | 99 | 101 | 96.8 | 102 | 107 | > 10 | > 10 | > 10 | > 10 | > 10 | 0 | 0 | 0 | 0 | 0
CCCCCCCNS(=O)(=O)c1cccc2c(Cl)cccc12 [SC-10] | 112 | 99.9 | 84.6 | 123 | 90.7 | 99.7 | 106 | 93.8 | 105 | 105 | 98.3 | 94.8 | 108 | 97.5 | 96.3 | 97.7 | 98.1 | 93.5 | 103 | 96.2 | 117 | 95.8 | 102 | 100 | 95.3 | > 10 | > 10 | > 10 | > 10 | > 10 | 0 | 0 | 0 | 0 | 0
CN(Cc1ccccc1)C(=O)[C@H](Cc1ccc2ccccc2c1)NC(=O)[C@@H]1CCCN1C(=O)Nc1ccccc1[N+](=O)[O-] [SDZ-NKT-343] | 96.3 | 97.3 | 96.1 | 89 | 75.1 | 95 | 93.7 | 98.9 | 97.3 | 90.7 | 102 | 93.9 | 103 | 93.6 | 92.2 | 105 | 103 | 101 | 106 | 87.3 | 102 | 98.7 | 106 | 97.7 | 99.2 | > 10 | > 10 | > 10 | > 10 | > 10 | 1.7 | 0 | 0 | 0 | 0
COc1cn(-c2ccc(-n3cccn3)cc2F)nc(-c2ccnn2-c2ccccc2)c1=O [TAK-063] | 88.1 | 95.7 | 91.1 | 97.4 | 105 | 92.1 | 95.4 | 98.8 | 102 | 109 | 99.7 | 95.5 | 102 | 105 | 106 | 97.3 | 99.6 | 97.1 | 101 | 102 | 91.7 | 97.3 | 103 | 90 | 104 | > 10 | > 10 | > 10 | > 10 | > 10 | 0 | 0 | 0 | 0 | 0
COc1cc2c(NC3CCN(C)CC3)nc(N3CCCN(C)CC3)nc2cc1OCCCN(C)C [UNC0224] | 99.3 | 101 | 89.9 | 95.8 | 103 | 143 | 103 | 94.2 | 97.9 | 98.9 | 90.3 | 97.4 | 98.8 | 101 | 95.9 | 103 | 96 | 104 | 101 | 101 | 96.7 | 102 | 101 | 102 | 98.1 | > 10 | > 10 | > 10 | > 10 | > 10 | 0 | 0 | 0 | 0 | 0
Nc1c(-c2cccc(C(F)(F)F)c2)nsc1C(=O)O [amflutizole] | 96.2 | 96.6 | 99.1 | 99.1 | 107 | 104 | 94.1 | 104 | 97 | 104 | 97.1 | 100 | 92.1 | 108 | 96.9 | 101 | 99.5 | 103 | 96.9 | 98.1 | 96.8 | 97.8 | 97.7 | 99.1 | 113 | > 10 | > 10 | > 10 | > 10 | > 10 | 0 | 0 | 0 | 0 | 0
O=C(O)CCCCCCNC1c2ccccc2CCc2ccccc21 [amineptine] | 90.6 | 99.7 | 99 | 103 | 110 | 101 | 95.3 | 111 | 96.2 | 102 | 109 | 102 | 93 | 98.8 | 105 | 98.8 | 101 | 97.9 | 99 | 98.9 | 104 | 107 | 99 | 100 | 97.2 | > 10 | > 10 | > 10 | > 10 | > 10 | 0 | 0 | 0 | 0 | 0
Nc1nccs1 [aminothiazole] | 102 | 94.8 | 97.8 | 98.9 | 100 | 102 | 105 | 100 | 109 | 91.3 | 104 | 100 | 94.7 | 97.2 | 97.4 | 102 | 98.6 | 94.2 | 99.8 | 97.1 | 105 | 106 | 98.2 | 93.4 | 95.4 | > 10 | > 10 | > 10 | > 10 | > 10 | 0 | 0 | 0 | 0 | 0
O=C(O)c1cccc(-c2noc(-c3ccccc3F)n2)c1 [ataluren] | 97 | 101 | 98.6 | 111 | 94.3 | 98.5 | 89.7 | 104 | 94.2 | 99.6 | 101 | 107 | 105 | 97.2 | 90.9 | 96.6 | 99.4 | 95.7 | 101 | 93.5 | 103 | 102 | 106 | 106 | 95.7 | > 10 | > 10 | > 10 | > 10 | > 10 | 0 | 0 | 0 | 0 | 0
Oc1ccc2ccccc2c1 [beta-naphthol] | 102 | 90.3 | 99.1 | 89.8 | 83.2 | 114 | 98.4 | 104 | 114 | 116 | 94 | 90.7 | 102 | 89.1 | 99.4 | 102 | 99.6 | 104 | 97.2 | 104 | 94.4 | 99.5 | 98.7 | 104 | 90.7 | > 10 | > 10 | > 10 | > 10 | > 10 | 0.6 | 0 | 0 | 0 | 0
C[C@H]1C[C@H]2[C@@H]3CCC4=CC(=O)C=C[C@]4(C)[C@@]3(F)[C@@H](O)C[C@]2(C)[C@@]1(O)C(=O)CO [betamethasone] | 101 ± 2.2 | 92.85 ± 0.49 | 84.5 ± 5.2 | 99.1 ± 5.8 | 92.9 ± 12 | 106 ± 9.1 | 107 ± 7.4 | 95.05 ± 0.49 | 102 ± 3.6 | 95 ± 3.5 | 101 ± 4.1 | 97 ± 4.6 | 99.4 ± 11 | 90.2 ± 15 | 89.7 ± 4.4 | 99.6 ± 3.8 | 101 ± 1.3 | 94.5 ± 2.9 | 97.5 ± 2.7 | 92.4 ± 1.4 | 97 ± 4.5 | 91.7 ± 5.5 | 94.5 ± 8.6 | 95.4 ± 4.1 | 92.1 ± 6.5 | > 10 | > 10 | > 10 | > 10 | > 10 | 0.25 ± 0.35 | 0 | 1.3 ± 1.7 | 0 | 0.1 ± 0.14
CC(C)(C)N1CCC(c2ccccc2)(c2ccccc2)CC1 [budipine] | 98.4 | 103 | 86.3 | 102 | 82.7 | 96.9 | 97.3 | 101 | 101 | 96.7 | 88.8 | 95.8 | 101 | 102 | 88.9 | 91.9 | 99 | 97.3 | 102 | 97.6 | 96.1 | 91.8 | 91.9 | 93.9 | 98.8 | > 10 | > 10 | > 10 | > 10 | > 10 | 0.3 | 0 | 0 | 0 | 0
CCCCNc1cc(C(=O)O)cc(S(N)(=O)=O)c1Oc1ccccc1 [bumetanide] | 90.2 | 103 | 103 | 94.1 | 96.7 | 95 | 93.1 | 104 | 95.4 | 95.1 | 103 | 98.5 | 104 | 107 | 94.6 | 97.9 | 101 | 98.9 | 99.1 | 102 | 117 | 108 | 107 | 95.6 | 99 | > 10 | > 10 | > 10 | > 10 | > 10 | 0 | 0 | 0 | 0 | 0
